Results on 17 molecules are retold here after patent US8623897B2, “Methods and compositions for treatment of diabetes and dyslipidemia” (Kareus Therapeutics, SA, priority 2010, dated 2014).

Series [1] concerns obese diabetic C57BLKS db/db mice. In words: In vivo efficacy in diabetic db/db mice (plasma glucose, triglycerides, HOMA index). Further details: species or system mouse. The conditions noted are these: male db/db mice, after 1-2 weeks of treatment; for Plasma Triglycerides (% change compared to vehicle) / Plasma glucose (% change compared to vehicle): 6 h fast; for Insulin resistance HOMA index (% change compared to vehicle): HOMA = I0×G0/405. Here is the method:
Male obese diabetic C57BLKS db/db mice (6 weeks old) were procured from the Jackson Laboratory (Bar Harbor, Me.) and were maintained on LabDiet 5K52 ad libitum with access to water. Animals were kept in a temperature-controlled room on a 12:12-h light-dark cycle. Experiments were performed on 6-9 week old mice.
Blood samples were collected after a 6 h fast on day 0 (baseline) and at the end week 1 and week 2 (day 7 and day 14) for analysis of glucose, triglycerides, total cholesterol, insulin and free fatty acid levels. Body weight and feed intake was measured twice weekly. Before initiation of the treatment, the animals were randomized based on plasma glucose levels into treatment groups (n=8 per group). The animals were administered the test compounds in 0.5% carboxymethylcellulose in water at the mentioned doses for two weeks by oral gavage. The control animals received the vehicle (0.5% carboxymethylcellulose in water) alone. Compound administration was continued till day 16.
Plasma glucose (PG) and triglycerides (TG) were measured spectrophotometrically in a microplate reader using reagent kits (Labkit, Merck) according to the manufacturer's instructions. Plasma insulin was measured by ELISA using a Rat/Mouse kit from Millipore (Cat. No. EZRMI-13K).
The percentage reduction was calculated according to the following formula
[formula] Statistical analysis was carried out by one way ANOVA followed by Dunnett's test using GraphPad Prism.
Determination of Homeostatic model assessment of insulin resistance (HOMA)—The HOMA index for insulin resistance was calculated using the formula— I0×G0/405 Where I0 is the fasting insulin (μU/ml), G0 is the fasting glucose in mg/dL. A factor of 6.945 was used for the conversion of insulin pmol/L to μlU/L).
The table below summarizes the effect on plasma glucose, triglycerides, and insulin resistance after 1-2 weeks of treatment with representative compounds of Formula I. Example numbers denote the products of examples given above. The data presented in the table is representative and should not be read as limiting the invention to the specific examples listed in the Table.

Consider `O=C(O)C1(CCCCCCCCCCCCC2(C(F)F)CC2)CC1` [Example 39, 1-[12-(1-Difluoromethyl-cyclopropyl)-dodecyl]-cyclopropanecarboxylic acid], for which the melting point (usually the temperature, or range, at which the solid turns liquid) lay within 54 to 54.8 °C.
The same measure, in the same setting: then `O=C(O)CC1(CCCCCCCCCCC2(C(=O)O)CC2)CC1` [Example 23, 1-[10-(1-Carboxymethyl-cyclopropyl)-decyl]-cyclopropanecarboxylic acid], with 71.9 to 74.3 °C.
Turning to `O=C(O)CC1(CCCCCCCCCCC2(CC(=O)O)CC2)CC1` [Example 4, {1-[10-(1-carboxymethyl-cyclopropyl)-decyl]-cyclopropyl}-acetic acid], in series [1] (50 mg/kg oral gavage), the “Plasma Triglycerides (% change compared to vehicle)” value was −51% and the “Insulin resistance HOMA index (% change compared to vehicle)” value is on record as −54%.
In turn, `COC(=O)C1(CCCCCCCCCCCCC2(C(=O)NS(C)(=O)=O)CC2)CC1` [Example 36, 1-[12-(1-Methanesulfonylaminocarbonyl-cyclopropyl)-dodecyl]-cyclopropanecarboxylic acid methyl ester] displayed a melting point of 53.5 to 54.5 °C.
Take `O=C(O)C1(CCCCCCCCCCCCC2(C(=O)O)CC2)CC1` [Example 1, 2,15-Dicycloproryl-hexadecanedioic acid]: in series [1] (10 mg/kg oral gavage), the “Plasma glucose (% change compared to vehicle)” value is reported as −52% and the “Insulin resistance HOMA index (% change compared to vehicle)” value is recorded as −65%.
`N#CC1(CCCCCCCCCCCCC2(C(=O)O)CC2)CC1` showed a melting point of 44.4 to 46.9 °C.
As to `O=C(O)C1(CCCCCCCCCCCCC2(C(=O)NCCO)CC2)CC1` [Example 42, 1-{12-[1-(2-hydroxy-ethylcarbamoyl)-cyclopropyl]-dodecyl}-cyclopropane carboxylic acid], the melting point lay within 81.1 to 83.8 °C.
In turn, `CS(=O)(=O)NC(=O)C1(CCCCCCCCCCCCC2(C(=O)O)CC2)CC1` [Example 37, 1-[12-(1-Methanesulfonylaminocarbonyl-cyclopropyl)-dodecyl]-cyclopropanecarboxylic acid] showed a melting point of 97.5 to 99.4 °C. Further, in series [1] (15 mg/kg oral gavage), the “Plasma glucose (% change compared to vehicle)” value was −59%.
`CCOC(=O)C1(CCCCCCCCCCCCC2(C(=O)OCC)CC2)CC1` [Example 10, 2,15-Dicyclopropyl-hexadecanedoic acid diethyl ester]: in series [1] (15 mg/kg oral gavage), the “Plasma Triglycerides (% change compared to vehicle)” value is on record as −23% and the “Plasma glucose (% change compared to vehicle)” value is given as −51%.
Take `NC(=O)C1(CCCCCCCCCCCCC2(C(=O)O)CC2)CC1` [Example 12]: the melting point lay within 116.6 to 118.1 °C. Further, in series [1] (20 mg/kg oral gavage), the “Plasma Triglycerides (% change compared to vehicle)” value is recorded as −28%, the “Plasma glucose (% change compared to vehicle)” value is reported as −55% and the “Insulin resistance HOMA index (% change compared to vehicle)” value is given as −89%.
The molecule `O=C(O)CC1(CCCCCCCCCCCC2(C(=O)O)CC2)CC1` [Example 30, 1-[11-(1-Carboxymethyl-cyclopropyl)-undecyl]-cyclopropanecarboxylic acid] returned a melting point of 75.3 to 78.9 °C.
As for `O=C(O)C1(CCCCCCCCCCCCC2(C(=O)NC3CC3)CC2)CC1` [Example 35, 1-[12-(1-Cyclopropylcarbamoyl-cyclopropyl)-dodecyl]-cyclopropane carboxylic acid], the melting point was in the range of 95.3 to 97.7 °C. The “Plasma glucose (% change compared to vehicle)” value in series [1] (15 mg/kg oral gavage) was −30%.
In turn, `N#CC1(CCCCCCCCCCCCC2(C#N)CC2)CC1` gave a melting point of 45 to 46.9 °C.
`COC(=O)C1(CCCCCCCCCCCCC2(C(=O)NC3CC3)CC2)CC1` [Example 34, 1-[12-(1-cyclopropylcarbamoyl-cyclopropyl)-dodecyl]-cyclopropane-carboxylic acid methyl ester] registered a melting point of 50.6 to 53 °C.
`CC(C)(CCCCCCCCCCCCC1(C(=O)O)CC1)C(=O)O` showed a melting point of 85.6 to 86.7 °C.
Same read-out and setting: the value for `O=C(NCCO)C1(CCCCCCCCCCCCC2(C(=O)NCCO)CC2)CC1` [Example 40, 1,1′-dodecane-1,12-diylbis[N-(2-hydroxyethyl)cyclopropanecarboxamide]] was 112.5 to 113.5 °C.
As for `COCC1(CCCCCCCCCCCCC2(C(=O)O)CC2)CC1` [Example 15, 1-[12-(1-Methoxymethyl-cyclopropyl)-dodecyl]-cyclopropanecarboxylic acid], the melting point fell in the range of 36.4 to 37.6 °C. In series [1] (15 mg/kg oral gavage), the “Plasma Triglycerides (% change compared to vehicle)” value is −35%, the “Plasma glucose (% change compared to vehicle)” value was −56% and the “Insulin resistance HOMA index (% change compared to vehicle)” value is listed as −92%.
